One may read the IC50 as the concentration needed to halve the response being measured. A lower IC50 goes with inhibition by little substance.

The first assay deals with KRAS G12V dependent lung adenocarcinoma cell line, NCI-H441. Nature of the assay: Cellular pERK (Thr202/Tyr204) FRET/HTRF assay. The class given is cell-based. The settings on record: Homo sapiens, NCI-H441, cellular pERK (Thr202/Tyr204) HTRF, NCI-H441 cells. Put shortly:
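Using a mix-and-read HTRF kit, phospho-ERK (Thr202/Tyr204) was detected in NCI-H441 lysates following 1 hr compound incubation at 37 °C, 5% CO2. Cells had been seeded overnight beforehand, and IC50 was derived by curve fitting.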
For `[2H]C([2H])(F)Oc1c(F)ccc2cccc(-c3ncc4c(N5CCCC[C@H]6[C@H](F)[C@H]65)nc(OC[C@]56CC(=C(F)F)CN5CCC65CC5)nc4c3F)c12` [Example 413, (R)-6′-(difluoromethylene)-7a′-(((8-fluoro-7-(7-fluoro-8-(fluoromethoxy-d2)naphthalen-1-yl)-4-((1S,7R,8S)-8-fluoro-2-azabicyclo[5.1.0]octan-2-yl)pyrido[4,3-d]pyrimidin-2-yl)oxy)methyl)hexahydrospiro [cyclopropane-1,1′-pyrrolizine]], the half-maximal inhibitory concentration (IC50) is 50 to 500 nM.

Molecule `C#Cc1c(F)ccc2cc(N)cc(-c3ncc4c(N5CCOC[C@H]6[C@H](F)[C@H]65)nc(OC[C@]56C[C@@H](F)CN5CCC6=O)nc4c3F)c12` [Example 414, (6R,7aS)-7a-(((7-(3-amino-8-ethynyl-7-fluoronaphthalen-1-yl)-8-fluoro-4-((1S,7S,8S)-8-fluoro-5-oxa-2-azabicyclo[5.1.0]octan-2-yl)pyrido[4,3-d]pyrimidin-2-yl)oxy)methyl)-6-fluorohexahydro-1H-pyrrolizin-1-one] gave an IC50 of less than 50 nM.

Regarding `[2H]C([2H])(Oc1nc(N2CCOC[C@H]3[C@H](F)[C@H]32)c2cc(C(F)(F)F)c(-c3cccc4ccccc34)c(F)c2n1)[C@@]12CCCN1C[C@H](F)C2` [Example 415, (1S,7S,8S)-8-fluoro-2-(8-fluoro-2-(((2R,7aS)-2-fluorotetrahydro-1H-pyrrolizin-7a(5H)-yl)methoxy-d2)-7-(naphthalen-1-yl)-6-(trifluoromethyl)quinazolin-4-yl)-5-oxa-2-azabicyclo[5.1.0]octane], the IC50 is 500 to 10000 nM.

`[2H]C([2H])(Oc1nc(N2CCCC[C@H]3[C@H](F)[C@H]32)c2cnc(-c3cc(N)cc4ccc(Cl)c(C#C)c34)c(F)c2n1)[C@@]12CCCN1[C@H](C)[C@H](F)C2` [Example 416, 6-Chloro-5-ethynyl-4-(8-fluoro-2-(((2R,3R,7aS)-2-fluoro-3-methyltetrahydro-1H-pyrrolizin-7a(5H)-yl)methoxy-d2)-4-((1S,7R,8S)-8-fluoro-2-azabicyclo[5.1.0]octan-2-yl)pyrido[4,3-d]pyrimidin-7-yl)naphthalen-2-amine] showed an IC50 of less than 50 nM.

On to `[2H]C([2H])(Oc1nc(N2CCCC[C@H]3[C@H](F)[C@H]32)c2cnc(-c3cc(N)cc4ccc(C)c(C#C)c34)c(F)c2n1)[C@@]12CCCN1[C@H](C)[C@H](F)C2` [Example 417, 5-Ethynyl-4-(8-fluoro-2-(((2R,3R,7aS)-2-fluoro-3-methyltetrahydro-1H-pyrrolizin-7a(5H)-yl)methoxy-d2)-4-((1S,7R,8S)-8-fluoro-2-azabicyclo[5.1.0]octan-2-yl)pyrido[4,3-d]pyrimidin-7-yl)-6-methylnaphthalen-2-amine], for which the half-inhibitory concentration (IC50) was less than 50 nM.

`[2H]C([2H])(Oc1nc(N2CCOC[C@H]3[C@H](F)[C@H]32)c2cc(C#N)c(-c3cc(N)cc4ccc(F)c(C#C)c34)c(C)c2n1)[C@@]12CCCN1C[C@H](F)C2` [Example 422, 7-(3-amino-8-ethynyl-7-fluoronaphthalen-1-yl)-4-((1S,7S,8S)-8-fluoro-5-oxa-2-azabicyclo[5.1.0]octan-2-yl)-2-(((2R,7aS)-2-fluorotetrahydro-1H-pyrrolizin-7a(5H)-yl)methoxy-d2)-8-methylquinazoline-6-carbonitrile] returned a 50% inhibitory concentration (IC50) of less than 50 nM.

The molecule `C#Cc1c(F)ccc2cccc(-c3ncc4c(N5CCCC[C@H]6[C@H](F)[C@H]65)nc(OC[C@]56CC(=C)CN5CCC65CC5)nc4c3F)c12` [Example 423, (R)-7a′-(((7-(8-Ethynyl-7-fluoronaphthalen-1-yl)-8-fluoro-4-((1S,7R,8S)-8-fluoro-2-azabicyclo[5.1.0]octan-2-yl)pyrido[4,3-d]pyrimidin-2-yl)oxy)methyl)-6′-methylenehexahydrospiro[cyclopropane-1,1′-pyrrolizine]] gave a 50% inhibitory concentration (IC50) of less than 50 nM.

The molecule `C=C1CN2CCC3(CC3)[C@@]2(COc2nc(N3CCCC[C@H]4[C@H](F)[C@H]43)c3cnc(-c4cc(N)cc(Cl)c4C(F)(F)F)c(F)c3n2)C1` [Example 424, 3-chloro-5-(8-fluoro-4-((1S,7R,8S)-8-fluoro-2-azabicyclo[5.1.0]octan-2-yl)-2-(((R)-6′-methylenetetrahydrospiro[cyclopropane-1,1′-pyrrolizin]-7a′(5′H)-yl)methoxy)pyrido[4,3-d]pyrimidin-7-yl)-4-(trifluoromethyl)aniline] returned a half-inhibitory concentration (IC50) of less than 50 nM.

As to `C#Cc1c(F)ccc2cc(N)cc(-c3ncc4c(N5CCOC[C@H]6[C@H](F)[C@H]65)nc(OC[C@@]56CCCN5CC(=C)C6)nc4c3C)c12` [Example 425, 5-ethynyl-6-fluoro-4-(4-((1S,7S,8S)-8-fluoro-5-oxa-2-azabicyclo[5.1.0]octan-2-yl)-8-methyl-2-(((S)-2-methylenetetrahydro-1H-pyrrolizin-7a(5H)-yl)methoxy)pyrido[4,3-d]pyrimidin-7-yl)naphthalen-2-amine], the concentration for half-maximal inhibition (IC50) was less than 50 nM.

`C#Cc1c(F)ccc2cc(N)cc(-c3ncc4c(N5CCOC[C@H]6[C@H](F)[C@H]65)nc(OC[C@@]56CCCN5C/C(=C/F)C6)nc4c3C)c12` [Example 426, 5-ethynyl-6-fluoro-4-(4-((1S,7S,8S)-8-fluoro-5-oxa-2-azabicyclo[5.1.0]octan-2-yl)-2-(((S,E)-2-(fluoromethylene)tetrahydro-1H-pyrrolizin-7a(5H)-yl)methoxy)-8-methylpyrido[4,3-d]pyrimidin-7-yl)naphthalen-2-amine] displayed a half-inhibitory concentration (IC50) of less than 50 nM.

`C#Cc1c(F)ccc2cc(N)cc(-c3ncc4c(N5CCOC[C@H]6[C@H](F)[C@H]65)nc(OC[C@@]56CCCN5C/C(=C\F)C6)nc4c3C)c12` [Example 427, 5-ethynyl-6-fluoro-4-(4-((1S,7S,8S)-8-fluoro-5-oxa-2-azabicyclo[5.1.0]octan-2-yl)-2-(((S,Z)-2-(fluoromethylene)tetrahydro-1H-pyrrolizin-7a(5H)-yl)methoxy)-8-methylpyrido[4,3-d]pyrimidin-7-yl)naphthalen-2-amine] gave a half-inhibitory concentration (IC50) of less than 50 nM.

Regarding `C#Cc1c(F)ccc2cc(N)cc(-c3ncc4c(N5CCOC[C@H]6[C@H](F)[C@H]65)nc(OC[C@@]56CCCN5CC(=C(F)F)C6)nc4c3C)c12` [Example 428, 4-(2-(((S)-2-(difluoromethylene)tetrahydro-1H-pyrrolizin-7a(5H)-yl)methoxy)-4-((1S,7S,8S)-8-fluoro-5-oxa-2-azabicyclo[5.1.0]octan-2-yl)-8-methylpyrido[4,3-d]pyrimidin-7-yl)-5-ethynyl-6-fluoronaphthalen-2-amine], the 50% inhibitory concentration (IC50) is less than 50 nM.

The molecule `C#Cc1c(F)ccc2cc(N)cc(-c3ncc4c(N5CCOC[C@H]6[C@H](F)[C@H]65)nc(OC[C@]56CC(=C)CN5CCC65CC5)nc4c3C)c12` [Example 429, 5-ethynyl-6-fluoro-4-(4-((1S,7S,8S)-8-fluoro-5-oxa-2-azabicyclo[5.1.0]octan-2-yl)-8-methyl-2-(((R)-6′-methylenetetrahydrospiro[cyclopropane-1,1′-pyrrolizin]-7a′(5′H)-yl)methoxy)pyrido[4,3-d]pyrimidin-7-yl)naphthalen-2-amine] returned a half-inhibitory concentration (IC50) of less than 50 nM.

For `C#Cc1c(F)ccc2cc(N)cc(-c3ncc4c(N5CCOC[C@H]6[C@H](F)[C@H]65)nc(OC[C@]56C/C(=C\F)CN5CCC65CC5)nc4c3C)c12` [Example 430, 5-ethynyl-6-fluoro-4-(4-((1S,7S,8S)-8-fluoro-5-oxa-2-azabicyclo[5.1.0]octan-2-yl)-2-(((R,E)-6-(fluoromethylene)tetrahydrospiro[cyclopropane-1,1′-pyrrolizin]-7a′(5′H)-yl)methoxy)-8-methylpyrido[4,3-d]pyrimidin-7-yl)naphthalen-2-amine], the concentration for half-maximal inhibition (IC50) is less than 50 nM.

On to `C#Cc1c(F)ccc2cc(N)cc(-c3ncc4c(N5CCOC[C@H]6[C@H](F)[C@H]65)nc(OC[C@]56C/C(=C/F)CN5CCC65CC5)nc4c3C)c12` [Example 431, 5-Ethynyl-6-fluoro-4-(4-((1S,7S,8S)-8-fluoro-5-oxa-2-azabicyclo[5.1.0]octan-2-yl)-2-(((R,Z)-6′-(fluoromethylene)tetrahydrospiro[cyclopropane-1,1′-pyrrolizin]-7a′(5′H)-yl)methoxy)-8-methylpyrido[4,3-d]pyrimidin-7-yl)naphthalen-2-amine], for which the IC50 is less than 50 nM.

The assay is the same for the next values; noted with them: Homo sapiens, NCI-H441, cellular pERK HTRF, NCI-H441 (KRAS G12V) cells.
Turning to `[2H]C([2H])(Oc1nc(N2CCOC[C@H]3[C@H](F)[C@H]32)c2cnc(-c3cc(N)cc4ccc(F)c(C#C)c34)c(C)c2n1)[C@@]12CCCN1CC(=C)C2` [Example 436, 5-Ethynyl-6-fluoro-4-(4-((1S,7S,8S)-8-fluoro-5-oxa-2-azabicyclo[5.1.0]octan-2-yl)-8-methyl-2-(((S)-2-methylenetetrahydro-1H-pyrrolizin-7a(5H)-yl)methoxy-d2)pyrido[4,3-d]pyrimidin-7-yl)naphthalen-2-amine], the IC50 was less than 50 nM.

`C#Cc1c(F)ccc2cc(N)cc(-c3ncc4c(N5CCOC[C@H]6[C@H](F)[C@H]65)nc(OC[C@]56CC(=C(F)F)CN5CCC65CC5)nc4c3C)c12` [Example 437, 4-(2-(((R)-6′-(difluoromethylene)tetrahydrospiro [cyclopropane-1,1′-pyrrolizin]-7a′(5′H)-yl)methoxy)-4-((1S,7S,8S)-8-fluoro-5-oxa-2-azabicyclo[5.1.0]octan-2-yl)-8-methylpyrido[4,3-d]pyrimidin-7-yl)-5-ethynyl-6-fluoronaphthalen-2-amine]: the half-inhibitory concentration (IC50) was less than 50 nM.

On to `[2H]C([2H])(Oc1nc(N2CCOC[C@H]3[C@H](F)[C@H]32)c2cnc(-c3cc(N)cc4ccc(F)c(C#C)c34)c(C)c2n1)[C@]12CC(=C)CN1CCC21CC1` [Example 442, 5-Ethynyl-6-fluoro-4-(4-((1S,7S,8S)-8-fluoro-5-oxa-2-azabicyclo[5.1.0]octan-2-yl)-8-methyl-2-(((R)-6′-methylenetetrahydrospiro[cyclopropane-1,1′-pyrrolizin]-7a′(5′H)-yl)methoxy-d2)pyrido[4,3-d]pyrimidin-7-yl)naphthalen-2-amine], for which the concentration for half-maximal inhibition (IC50) was less than 50 nM.

These data come from US20250282799A1, “SUBSTITUTED PYRIDO[4,3-d]PYRIMIDINES AS KRAS MODULATORS” (Alterome Therapeutics, Inc., priority 2023, published 2025).
